Results from article PMC11151065, “Boosted Enzyme Activity via Encapsulation within Metal–Organic Frameworks with Pores Matching Enzyme Size and Shape” (Advanced Science, 2024).

Molecular target: T1, cytochrome c (Cyt c) (Bos taurus, UniProt P62894)
T1 construct: gene CYCS; native holoprotein from cow heart (Sigma-Aldrich), free in solution
Assay: absorbance of ABTS radical cation at […] nm
Type: biochemical
Details: free enzyme; peroxidase activity with H2O2 co-substrate; room temperature

T1 sequence (P62894 2-105): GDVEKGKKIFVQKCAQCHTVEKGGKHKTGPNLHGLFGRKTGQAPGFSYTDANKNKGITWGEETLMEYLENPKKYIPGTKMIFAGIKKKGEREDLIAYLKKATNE

CCn1c(=NN=c2sc3cc(S(=O)(=O)O)ccc3n2CC)sc2cc(S(=O)(=O)O)ccc21 [ABTS, 2,2′‐azino‐bis (3‐ethylbenzothiazoline‐6‐sulfonic acid)]
absorbance of ABTS radical cation at 415 nm: peroxidase catalytic properties of Cyt c were utilized to oxidize ABTS to ABTS▪^+
